Columns and labels:
[1] = Stability in blood serum (hydrolysis followed by TLC); format: in vitro ADME; details: rat serum, 37°C
Protocol: The stability of triptolide succinate in blood serum was determined. In this study, a solution of triptolide succinate (the free acid of the sodium triptolide succinate) in DMSO was mixed with rat serum and incubated at 37°C. The mixture was assayed periodically by thin layer chromatography (TLC) to follow the hydrolysis of the triptolide succinate over time. […] After 15 minutes, the triptolide succinate spot was gone and a new spot corresponding to triptolide had appeared (Rf =0.60). Finally, after 45 minutes, the triptolide spot had also disappeared, and only low Rf material (blood serum components and decomposition products) remained.
Stability in Blood Serum: a solution of triptolide succinate (free acid) in DMSO can be made at a concentration of 25 mg/ml, and 0.1 ml of this solution can be mixed with 0.5 ml of rat serum. The mixture was incubated at 37°C. Aliquots of the mixture should then be taken at 1, 3, 5, 15, 45 minutes and 18 hours and analyzed by thin layer chromatography (TLC). The TLC plates can be developed in 1:5 CH2Cl2/Et2O. After development, the plates can be treated with iodine vapor and examined under a UV lamp. Triptolide and triptolide succinate can be used as reference compounds (Rf =0.60, and 0.45, respectively).
After 15 minutes, the triptolide succinate spot may be gone (Rf =0.45), and a new spot corresponding to triptolide may have appeared (Rf =0.60). After 45 minutes, the triptolide spot may also disappear, and only low Rf material (blood serum components and decomposition products) may remain.

[2] = system: relapsed or refractory acute myeloid leukemia; assay: Exploratory dose escalation treatment of patients with relapsed or refractory leukemias; format: in vivo
Protocol: PG490-88 Na is a 14-succinyl triptolide sodium salt of triptolide (PG490).
In this example, 29 patients with relapsed or refractory leukemias were treated. Median age was 57 years (range : 30 - 79). Sixty two percent of patients were male. Twelve dose levels from 0.150 to 13 mg/m^2/day were tested in one patient each, with an increase by 50% for each successive cohort of patients until one dose limiting toxicity (DLT) was observed. Thereafter, dose escalation was switched to a standard design using cohorts of 3 to 6 patients per dose level, with 30% dose increments.
Among all the patients, 6 […] presented with a disease refractory to standard induction chemotherapy and the others were in 1st or 2nd relapse who had failed salvage therapy for 9 of them. […]

[3] = Stability in water (D2O solution followed by proton NMR); format: physicochemical; details: room temperature; for change in the NMR spectrum: 3 mg/ml
Protocol: Sodium triptolide succinate was dissolved in D2O, and the aqueous solution was stored at room temperature.
Stability in Water: a solution of sodium triptolide succinate in D2O can be prepared at a concentration of 3 mg/ml and stored at room temperature. The solution can be analyzed by ^1H NMR at intervals of 1, 3, 5, 15, 45, 90, 180 minutes; 1, 7, 14 days; and 1, 2, 3, and 5 months.

[4] = patients with relapsed or refractory leukemias
[5] = recommended dose of 5.7 mg/m^2/day

With Triptolide Succinate the “time for hydrolysis in serum to release free triptolide” value [1] was “less than an hour”, the “species detected by TLC” value ([1]; after 3 minutes) was “only triptolide succinate may be detected” and the “triptolide succinate spot (Rf =0.45) by TLC” value ([1]; after 15 minutes) was “gone”. The “triptolide succinate spot (Rf =0.45) by TLC” value ([1]; within the first 3 to 5 minutes) was “most of the triptolide succinate remained”.

In the case of `CC(C)[C@]12O[C@H]1[C@@H]1O[C@]13[C@]1(O[C@H]1C[C@H]1C4=C(CC[C@@]13C)C(=O)OC4)[C@@H]2OC(=O)CCC(=O)[O-].[Na+]` [PG490-88 Na, 14-succinyl triptolide sodium salt], the “cerebellar toxicity, patients” value ([2]; 7 mg/m^2/day (one grade 2 and two grade 4)) is reported as 3 patients, the “cerebellar toxicity, patients” value ([2]; 8.5 mg/m^2/day (two grade 4)) is reported as 2 patients and the response ([2]; another patient, 8.5 mg/m^2/day, after 2 cycles of treatment) is reported as “CRp: complete remission without full platelets recovery”. For the same molecule, the “cerebellar toxicity, patients” value ([2]; doses > 5.7 mg/m^2/day) was 5 patients, the “overall response on relapsed or refractory acute myeloid leukemia” value ([2]; exploratory dose escalation experiments) was “very good response” and the response ([2]; one patient, 5.7 mg/m^2/day, day 15 of the treatment, one cycle) was “complete remission (CR) with pancytopenia”. For the same molecule, the haematological toxicity ([2]; patient with CRp, 8.5 mg/m^2/day, after cycle 2) was “no haematological toxicity”, the haematological toxicity ([2]; patient with CRp, 8.5 mg/m^2/day, after the first cycle) was “grade 4 aplasia lasting 20 days” and the “maximum tolerated dose (MTD)” value [2, 4] was 7 mg/m^2/day. For the same molecule, the “recommended dose for this regimen” value [2, 4] was 5.7 mg/m^2/day, the “grade 3 leucopenia (related adverse event), patients” value [2, 5] was 1 patient and the “other related adverse events” value [2, 5] was “mild diarrhoea, nausea and vomiting”. For the same molecule, the haematological toxicity ([2]; third patient (complete remission), 8.5 mg/m^2/day, after the first cycle) was “moderate leucopenia (grade 1 lasting 2 days)”, the haematological toxicity ([2]; third patient (complete remission), 8.5 mg/m^2/day, during the second cycle) was “no haematotoxicity” and the response ([2]; third patient, 8.5 mg/m^2/day, after 2 cycles of treatment) was “complete remission”. For the same molecule, the “change in the NMR spectrum” value ([3]; after 5 months) was “Some decomposition”, the “change in the NMR spectrum” value ([3]; during the first three months) was “No appreciable change” and the “stability in aqueous solution (proton NMR spectra)” value ([3]; after five months) was “some decomposition”. For the same molecule, the “stability in aqueous solution (proton NMR spectra)” value ([3]; after three months) was “unchanged”.
